Among the data in ChEMBL document CHEMBL3272170, “Potential antitumor agents. 24. Dicationic analogues of the 4'-(9-acridinylamino)alkanesulfonanilides” (J Med Chem, 1977) are pKa and MTD values, retold here.

Data set [1] can be described thus: in vivo. The conditions noted are these: C3H X DBA2 F1, mouse, ip.
Description: Toxicity in ip dosed C3H X DBA2 F1 mouse allografted with mouse L1210 cells through ip
The nature of data set [2]: in vivo. The conditions noted are these: C3H X DBA2 F1, mouse, ip. The source holds these as a separate data set.
Description: Toxicity in ip dosed C3H X DBA2 F1 mouse allografted with mouse L1210 cells through sc

Description for physchem: Ionization constant, pKa of the compound by UV spectrophotometric analysis

Turning to `NCCCCCCCS(=O)(=O)Nc1ccc(Nc2c3ccccc3nc3cc([N+](=O)[O-])ccc23)cc1`, the pKa (usually the pH at which an ionisable group is half protonated) in the data set “physchem” stood at 5.36.
In “physchem”, `COc1cc(NS(=O)(=O)CCCCN)ccc1Nc1c2ccccc2nc2cc([N+](=O)[O-])ccc12` came in with a pKa of 5.58.
On to `Cc1cccc2c(Nc3ccc(NS(=O)(=O)CCCCN)cc3)c3ccc([N+](=O)[O-])cc3nc12.Cl`, for which, in “in vivo [1]”, the MTD worked out at 200 mg/kg/day. Besides, the pKa in “physchem” was 5.44.
Molecule `CC(=O)Nc1ccc2c(Nc3ccc(NS(=O)(=O)CCNC(=N)N)cc3)c3ccc([N+](=O)[O-])cc3nc2c1` came in with a pKa in the data set “physchem” of 5.55.
The same measure, in the same setting: to `N=C(N)NCCCS(=O)(=O)Nc1ccc(Nc2c3ccc([N+](=O)[O-])cc3nc3cc([N+](=O)[O-])ccc23)cc1` belongs 3.68; to `NCC(=O)NCCS(=O)(=O)Nc1ccc(Nc2c3ccccc3nc3ccccc23)cc1`, 6.9; to `NCCS(=O)(=O)Nc1ccc(Nc2c3ccccc3nc3cc([N+](=O)[O-])ccc23)cc1`, 5.25.
On the same count and under the same terms, for `C[n+]1c2ccccc2c(Nc2ccc(NS(=O)(=O)CCCCN)cc2)c2ccccc21` the value was 6.72; for `NCCCCS(=O)(=O)Nc1ccc(Nc2c3ccccc3nc3ccccc23)cc1`, 6.91.
On the same count and under the same terms, to `C[n+]1c2ccccc2c(Nc2ccc(NS(C)(=O)=O)cc2)c2ccc(N)cc21` belongs 10.1; to `C[n+]1c2ccccc2c(Nc2ccc(NS(=O)(=O)CCNC(=O)CCN)cc2)c2ccccc21`, 6.7; to `Cc1ccc2c(Nc3ccc(NS(=O)(=O)CCCCN)cc3)c3ccc([N+](=O)[O-])cc3nc2c1C`, 5.52.
In the data set “physchem”, `NCCC(=O)NCCS(=O)(=O)Nc1ccc(Nc2c3ccccc3nc3cc([N+](=O)[O-])ccc23)cc1` displayed a pKa of 5.35. The pKa values of the last two molecules are within 0.2 log units of each other.
Same read-out and setting: for `CC(=O)Nc1ccc2c(Nc3ccc(NS(=O)(=O)CCCNC(=N)N)cc3)c3ccc([N+](=O)[O-])cc3nc2c1` the value was 5.58.
Still for that read-out and setting: to `N=C(N)NCCS(=O)(=O)Nc1ccc(Nc2c3ccccc3nc3cc([N+](=O)[O-])ccc23)cc1` belongs 5.26.
Same read-out and setting: for `NCCCS(=O)(=O)Nc1ccc(Nc2c3ccccc3nc3ccccc23)cc1` the value was 6.89; for `CC(=O)Nc1ccc2c(Nc3ccc(NS(=O)(=O)CCCCN)cc3)c3ccccc3nc2c1`, 7.16.
In the case of `N=C(N)NCCCCS(=O)(=O)Nc1ccc(Nc2c3ccccc3nc3cc([N+](=O)[O-])ccc23)cc1`, the pKa in “physchem” turned out to be 5.36.
On the same count and under the same terms, for `N=C(N)NCCCCCCS(=O)(=O)Nc1ccc(Nc2c3ccccc3nc3cc([N+](=O)[O-])ccc23)cc1` the value was 5.35.
With `Cl.NCCCCCS(=O)(=O)Nc1ccc(Nc2c3ccccc3nc3cc([N+](=O)[O-])ccc23)cc1`, the MTD in “in vivo [2]” was 44 mg/kg/day. Further, in the data set “physchem”, the pKa came to 5.36.
In “in vivo [1]”, `C[n+]1c2ccccc2c(Nc2ccc(NS(=O)(=O)CCCCNC(=N)N)cc2)c2ccccc21.[Br-]` had an MTD of 150 mg/kg/day. The molecule further had a pKa in the data set “physchem” of 6.69.
`Nc1c2ccccc2nc2ccccc12` [AMINACRINE]: the pKa in “physchem” is 9.6.
Still for that read-out and setting: for `NCC(=O)NCCS(=O)(=O)Nc1ccc(Nc2c3ccccc3nc3cc([N+](=O)[O-])ccc23)cc1` the value was 5.34.
The molecule `NCCC(=O)NCCS(=O)(=O)Nc1ccc(Nc2c3ccccc3nc3ccccc23)cc1` had a pKa in the data set “physchem” of 6.91.
Same read-out and setting: for `CS(=O)(=O)Nc1ccc(Nc2c3ccccc3nc3ccccc23)cc1` the value was 7.19.
As for `Cl.N=C(N)NCCCCS(=O)(=O)Nc1ccc(Nc2c3ccccc3nc3cc(Cl)ccc23)cc1`, the MTD in “in vivo [1]” came to 150 mg/kg/day. The pKa in the data set “physchem” turned out to be 6.33.
On to `Cl.N=C(N)NCCCCS(=O)(=O)Nc1ccc(Nc2c3ccccc3nc3ccccc23)cc1`, for which the MTD in “in vivo [1]” stood at 75 mg/kg/day. The same molecule returned a pKa in the data set “physchem” of 6.91.
On to `CN(C)CCCCS(=O)(=O)Nc1ccc(Nc2c3ccccc3nc3cc([N+](=O)[O-])ccc23)cc1.Cl`, for which the MTD in “in vivo [2]” came to 10 mg/kg/day. In the data set “physchem”, this molecule returned a pKa of 5.36.
The molecule `N=C(N)NCCCCCS(=O)(=O)Nc1ccc(Nc2c3ccccc3nc3cc([N+](=O)[O-])ccc23)cc1` had a pKa in “physchem” of 5.36.
In turn, `Cl.NCCCCCCS(=O)(=O)Nc1ccc(Nc2c3ccccc3nc3cc([N+](=O)[O-])ccc23)cc1` displayed an MTD in the data set “in vivo [2]” of 2 mg/kg/day. The pKa in the data set “physchem” turned out to be 5.34.
The matching figures for `Cl.NCCCS(=O)(=O)Nc1ccc(Nc2c3ccccc3nc3cc([N+](=O)[O-])ccc23)cc1`: 20 mg/kg/day and 5.33.
Consider `Cl.NCCCCCCCCS(=O)(=O)Nc1ccc(Nc2c3ccccc3nc3cc([N+](=O)[O-])ccc23)cc1`, for which, in “in vivo [1]”, the MTD amounted to 30 mg/kg/day. This molecule also showed a pKa in “physchem” of 5.35.
The matching figures for `Cl.NCCCCCS(=O)(=O)Nc1ccc(Nc2c3ccccc3nc3ccccc23)cc1`: 60 mg/kg/day and 6.92.
The matching figures for `Cl.NCCCCCCS(=O)(=O)Nc1ccc(Nc2c3ccccc3nc3ccccc23)cc1`: 65 mg/kg/day and 6.92.
In turn, `N=C(N)NCCCS(=O)(=O)Nc1ccc(Nc2c3ccccc3nc3cc([N+](=O)[O-])ccc23)cc1` came in with a pKa in “physchem” of 5.34.
On the same count and under the same terms, to `Cc1cccc2c(Nc3ccc(NS(=O)(=O)CCCCNC(=N)N)cc3)c3cccc(C)c3nc12` belongs 6.41; to `NCCCCS(=O)(=O)Nc1ccc(Nc2c3ccccc3nc3cc([N+](=O)[O-])ccc23)cc1`, 5.34.
Turning to `Cl.NCCS(=O)(=O)Nc1ccc(Nc2c3ccccc3nc3ccccc23)cc1`, the MTD in “in vivo [1]” is 35 mg/kg/day. In the data set “physchem”, this molecule displayed a pKa of 6.62.
